Experimental findings from US20150336993A1, “MITOCHONDRIA-TARGETED THERANOSTIC AGENTS” (The Board of Trustees of the Leland Stanford Junior …, priority 2014, published 2015) are described below.

Test [1] concerns U87MG cells. In words: Cell uptake and localization by fluorescence microscopy in U87MG cells. Particulars: 1 hour incubation, fluorescence signal in cells/PBS buffer, n=9. The class given is cell-based, human. As to the method: The data was obtained by calculating by the following equation: Fluorescence signal in cell lines/Fluorescence signal in PBS buffer and normalized to F16 in the U87MG cell line. n=9. Data are presented as mean±SD.
Tumor cell uptake of all F16 related compounds were studied by incubating two cancer cell lines (U87MG and MDA-MB-231) with the probes for 1 hour and then imaging was performed with a fluorescent microscope. Meanwhile, to investigate the localization of the F16 derivatives, after incubation with the probes, cells were co-stained with the commercially available dye Mitotrack, which is widely used for mitochondria staining. […] Under eGFP filter set (ξex 450/490 nm, λem 515/565 nm), no significant autofluorescence of the cells were observed, making it convenient to study the relative uptake of the probes directly by comparing their fluorescence signals.
We then investigated the uptake of all the probes in U87MG and MDA-MB-231 cells at 1 hour incubation by quantitative analysis of fluorescent signals intensity of all F16 related compounds in the cells. The cellular uptake experiments were repeated nine times, and the relative cellular uptakes ability of different probes were calculated by comparing their percentage of cellular fluorescent signals and then normalized by that of F16 (FIG. 4). […]

Test [2] relates to U87MG cells. As to the kind of experiment: Cell proliferation assay in U87MG cells (direct cell counting). The note with it: for IC50: 3000 cells/well, incubated 4 days, viable cells directly counted, read-out: IC50 (half inhibitory concentration) against U87MG. The class given is cell-based, human. On the procedure:
Apart from the imaging studies, we then investigated anti-tumor activities of all F16 related compounds by studying their antiproliferative effects in U87MG and MDA-MB-231 cell lines. After exposure to 5 or 10 μM of the compounds in the cancer cells for 4 days, the cell proliferative ratios to the control were measured (see FIG. 5). […] The different antiproliferative activities imply that the antitumor potency of the F16 related compounds is cell-dependent. Meanwhile, substituents in F16 and F16-TPP analogues played distinct roles, for instance, introduction of a fluorine atom in F16 barely influences activity of FF16 (P>0.05), while substitution of fluorine and methyl groups apparently impacts F16-TPP analogues in the U87MG cell line at a higher concentration of 10 μM.
(§1) To further confirm the relationship between cell uptake and antitumor activity, the half inhibitory concentrations (IC50) of these compounds against the U87MG cell line were measured. […] It should be noted that all these five compounds show minimum or even un-observable toxicity in the fibroblast cell line NIH 3T3 (IC50 all >100 μM, Table 1, FIG. 6), highlighting the treatment specificity of these mitochondrial targeted agents.
(§2) Both U87MG and NIH 3T3 cell lines at a density of 3000 cells/well were incubated in 96-well plates overnight. The culture medium was replaced with 200 μL of culture medium in which the testing compound dispersed at various concentrations (0.5-200 μM). After incubation for 4 days, the viable cell numbers were checked and directly counted under microscopy (10×). A minimum of 1 mm×1 mm area was counted from each of at least three widely separated regions of cell culture. The cell proliferation rate was calculated by the following formula: cell proliferation rate (%)=(average cell number of sample wells/average cell number of control wells×100. The intact culture medium was evaluated as a control.

Test [3] has as its system NIH 3T3 cells. As to the kind of experiment: Cell proliferation assay in NIH 3T3 cells (direct cell counting). The class given is cell-based, mouse. The note with it: NIH 3T3 fibroblasts, 3000 cells/well, incubated 4 days, viable cells directly counted, read-out: IC50 (half inhibitory concentration) against NIH 3T3. On the procedure: as §1, §2

Where two headings read alike, the source gives them in different places.

`C[n+]1ccc(/C=C/c2c[nH]c3ccccc23)cc1.[I-]` [F16, (E)-4-(1H-indol-3-ylvinyl)-N-methylpyridinium iodide, reference compound]: the “Relative uptake in U87MG cells, normalized to F16” value in test [1] is listed as roughly 1. Besides, the IC50 in test [2] (Homo sapiens, U-87 MG, 96 h) was 36.5 ± 1.1 µM; in test [3] (Mus musculus, NIH3T3, 96 h) it was roughly 100 µM.
As for `C[n+]1ccc(/C=C/c2c[nH]c3ccc(F)cc23)cc1.[I-]` [FF16, (E)-4-(1H-5-fluro-indole-3-ylvinyl)-N-methylpyridinium iodide], in test [1], the “Relative uptake in U87MG cells, normalized to F16” value was roughly 1. Besides, the IC50 in test [2] is 28 ± 1.2 µM; in test [3], roughly 491 µM. Further, in test [2] (fluorine substitution in F16), the “Improvement of bioactivity relative to F16 (U87MG IC50)” value was roughly 1.3 fold.
